Source: ChEMBL document CHEMBL1136176, “QSAR study on the affinity of some arylpiperazines towards the 5-HT1A/alpha1-adrenergic receptor using the E-state index” (Bioorg Med Chem Lett, 2003)

How the values were obtained:
Type in all cases: functional, tissue-based
[1] = target: T1, 5-hydroxytryptamine receptor 1A (Rattus norvegicus) (UniProt P19327); test: Antagonistic activity against 5-hydroxytryptamine 1A receptor in rat cerebral cortex using [3H]-8-OH-DPAT as radioligand.
T1 sequence (whole entry): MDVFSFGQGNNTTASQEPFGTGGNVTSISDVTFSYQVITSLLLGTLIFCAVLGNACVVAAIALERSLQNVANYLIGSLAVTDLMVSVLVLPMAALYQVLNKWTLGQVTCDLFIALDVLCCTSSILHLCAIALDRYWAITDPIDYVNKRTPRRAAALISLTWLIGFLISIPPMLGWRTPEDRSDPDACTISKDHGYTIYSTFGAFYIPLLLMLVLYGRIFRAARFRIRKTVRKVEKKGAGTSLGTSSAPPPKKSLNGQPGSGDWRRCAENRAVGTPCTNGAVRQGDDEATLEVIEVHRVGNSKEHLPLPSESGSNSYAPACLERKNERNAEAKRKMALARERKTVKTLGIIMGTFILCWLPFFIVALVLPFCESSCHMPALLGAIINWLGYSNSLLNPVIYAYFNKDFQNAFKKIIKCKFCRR

[2] = target: T1, 5-hydroxytryptamine receptor 1A (Rattus norvegicus); test: Antagonistic activity against 5-hydroxytryptamine 1A receptor in rat cerebral cortex using [3H]8-OH-DPAT as radioligand.
[3] = target: Adrenergic receptor alpha-1 (Rattus norvegicus) (UniProt P15823+P23944+P43140); test: Antagonistic activity against alpha-1 adrenergic receptor in rat cerebral cortex using [3H]prazosin as radioligand.

Row | pK1 [1] | K1 [2] [nM] | K2 [3] [nM] | pK2 [3] | SMILES
1 | 8.4 | 4 | 4.9 | 8.31 | N#Cc1ccccc1N1CCN(CCCCN2C(=O)C3CCCN3C2=O)CC1 (stereo unspecified)
2 | 7.56 | 27 | 17 | 7.76 | N#Cc1ccccc1N1CCN(CCCN2CC(=O)N3CCCC3C2=O)CC1 (stereo unspecified)
3 | 8.27 | 5.4 | 5.9 | 8.23 | O=C1C2CCCCN2C(=O)N1CCCCN1CCN(c2cccc(Br)c2)CC1 (stereo unspecified)
4 | 6.84 | 143 | 29 | 7.53 | Cc1ccccc1N1CCN(CCCN2CC(=O)N3CCCCC3C2=O)CC1 (stereo unspecified)
5 | 6.72 | 193 | 5420 | 5.27 | CC(C)C(=O)Nc1cccc(N2CCN(CCCCN3C(=O)C4CCCN4C3=O)CC2)c1 (stereo unspecified)
6 | 6.57 | 266 | 1440 | 5.84 | CC(C)C(=O)Nc1cccc(N2CCN(CCCN3CC(=O)N4CCCC4C3=O)CC2)c1 (stereo unspecified)
7 | 8.06 | 8.7 | 10.5 | 7.98 | CCCCOc1ccccc1N1CCN(CCCCN2CC(=O)N3CCCC3C2=O)CC1 (stereo unspecified)
8 | 7.47 | 34 | 25 | 7.61 | O=C1C2CCCN2C(=O)N1CCCN1CCN(c2cccc(Br)c2)CC1 (stereo unspecified)
9 | 7.92 | 12 | 25 | 7.59 | Cc1ccccc1N1CCN(CCCCN2CC(=O)N3CCCC3C2=O)CC1 (stereo unspecified)
10 | 7.19 | 65 | 8.2 | 8.09 | N#Cc1ccccc1N1CCN(CCCN2C(=O)C3CCCCN3C2=O)CC1 (stereo unspecified)
11 | 7.04 | 92 | 13 | 7.89 | CCCCOc1ccccc1N1CCN(CCCN2CC(=O)N3CCCCC3C2=O)CC1 (stereo unspecified)
12 | 7.78 | 16 | 7 | 8.15 | Cc1ccccc1N1CCN(CCCCN2C(=O)C3CCCN3C2=O)CC1 (stereo unspecified)
13 | 5.91 | 1230 | 1350 | 5.87 | CCCNC(=O)c1ccccc1N1CCN(CCCCN2CC(=O)N3CCCC3C2=O)CC1 (stereo unspecified)
14 | 7.31 | 48 | 17 | 7.76 | Cc1ccccc1N1CCN(CCCN2CC(=O)N3CCCC3C2=O)CC1 (stereo unspecified)
15 | 7.17 | 68 | 231 | 6.64 | Nc1cccc(N2CCN(CCCCN3C(=O)C4CCCCN4C3=O)CC2)c1 (stereo unspecified)
16 | 6.42 | 378 | 521 | 6.28 | CCCNC(=O)c1ccccc1N1CCN(CCCCN2C(=O)C3CCCCN3C2=O)CC1 (stereo unspecified)

Row | pK1 [1] | K1 [2] [nM] | K2 [3] [nM] | pK2 [3] | SMILES
17 | 5.93 | 1180 | 393 | 6.41 | Nc1cccc(N2CCN(CCCN3C(=O)C4CCCN4C3=O)CC2)c1 (stereo unspecified)
18 | 5.34 | 4610 | 811 | 6.09 | CCCNC(=O)c1ccccc1N1CCN(CCCN2CC(=O)N3CCCCC3C2=O)CC1 (stereo unspecified)
19 | 8.26 | 5.5 | 72 | 7.14 | O=C1C2CCCN2C(=O)CN1CCCCN1CCN(c2ccccc2C(F)(F)F)CC1 (stereo unspecified)
20 | 7.82 | 15 | 6.4 | 8.19 | CCCCOc1ccccc1N1CCN(CCCN2C(=O)C3CCCN3C2=O)CC1 (stereo unspecified)
21 | 6.75 | 179 | 339 | 6.47 | O=C1C2CCCCN2C(=O)CN1CCCN1CCN(c2ccccc2C(F)(F)F)CC1 (stereo unspecified)
22 | 6.7 | 198 | 16100 | 4.79 | CC(C)C(=O)Nc1cccc(N2CCN(CCCCN3CC(=O)N4CCCCC4C3=O)CC2)c1 (stereo unspecified)
23 | 7.55 | 28 | 392 | 6.41 | CCCOC(=O)c1ccccc1N1CCN(CCCCN2CC(=O)N3CCCCC3C2=O)CC1 (stereo unspecified)
24 | 8.66 | 2.2 | 5 | 8.3 | CCCCOc1ccccc1N1CCN(CCCCN2C(=O)C3CCCCN3C2=O)CC1 (stereo unspecified)
25 | 6.66 | 220 | 5.7 | 8.25 | Cc1ccccc1N1CCN(CCCN2C(=O)C3CCCCN3C2=O)CC1 (stereo unspecified)
26 | 7.34 | 46 | 13 | 7.89 | CCCOC(=O)c1ccccc1N1CCN(CCCN2C(=O)C3CCCCN3C2=O)CC1 (stereo unspecified)
27 | 7.82 | 15 | 30 | 7.52 | N#Cc1ccccc1N1CCN(CCCCN2CC(=O)N3CCCCC3C2=O)CC1 (stereo unspecified)
28 | 8.32 | 4.8 | 41 | 7.39 | CCCOC(=O)c1ccccc1N1CCN(CCCCN2C(=O)C3CCCN3C2=O)CC1 (stereo unspecified)
29 | – | – | 12 | 7.93 | CCCOC(=O)c1ccccc1N1CCN(CCCN2CC(=O)N3CCCC3C2=O)CC1 (stereo unspecified)
30 | 6.09 | 808 | 608 | 6.22 | CCCNC(=O)c1ccccc1N1CCN(CCCN2C(=O)C3CCCN3C2=O)CC1 (stereo unspecified)
31 | 6.11 | 776 | 4430 | 5.35 | CC(C)C(=O)Nc1cccc(N2CCN(CCCN3C(=O)C4CCCCN4C3=O)CC2)c1 (stereo unspecified)
32 | 7.5 | 32 | 27 | 7.56 | Cc1ccccc1N1CCN(CCCCN2CC(=O)N3CCCCC3C2=O)CC1 (stereo unspecified)
